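96-well plates; 48 h exposure; 5 concentrations. Endpoints by linear interpolation between flanking doses. Not reached: highest tested concentration assigned. At the GI50, growth is halved.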 Activity calls are given as the source filed them. Cut-off read from the data, not from the text of the source: active = GI50 up to about 1.1 µM and inactive = higher.
Key:
Experiment in all cases: growth of human tumour cells (NCI), 48 h
UO-31 = test system: UO-31
KM12 = test system: KM12
RXF 393 = test system: RXF 393
BT-549 = test system: BT-549
IGROV-1 = test system: IGROV-1
NCI/ADR-RES = test system: NCI/ADR-RES
NCI-H226 = test system: NCI-H226
LOX IMVI = test system: LOX IMVI
HOP-92 = test system: HOP-92
OVCAR-8 = test system: OVCAR-8
MDA-MB-231 = test system: MDA-MB-231
COLO 205 = test system: COLO 205
T47D = test system: T47D
U-251 = test system: U-251
SF-268 = test system: SF-268
K562 = test system: K562
Malme-3M = test system: Malme-3M
OVCAR-5 = test system: OVCAR-5
A498 = test system: A498
SK-OV-3 = test system: SK-OV-3
HCC 2998 = test system: HCC 2998
EKVX = test system: EKVX
SW-620 = test system: SW-620
CCRF-CEM = test system: CCRF-CEM
PC-3 = test system: PC-3
OVCAR-3 = test system: OVCAR-3
MCF7 = test system: MCF7
OVCAR-4 = test system: OVCAR-4
HOP-62 = test system: HOP-62
M14 = test system: M14
CAKI-1 = test system: CAKI-1
HCT-116 = test system: HCT-116
786-0 = test system: 786-0
NCI-H460 = test system: NCI-H460
UACC-257 = test system: UACC-257
MDA-N = test system: MDA-N
Hs-578T = test system: Hs-578T
A549 = test system: A549
MOLT-4 = test system: MOLT-4
TK-10 = test system: TK-10
SK-MEL-5 = test system: SK-MEL-5
SN12C = test system: SN12C
UACC-62 = test system: UACC-62
NCI-H23 = test system: NCI-H23
SR = test system: SR
NCI-H522 = test system: NCI-H522
ACHN = test system: ACHN
SK-MEL-2 = test system: SK-MEL-2
SNB-19 = test system: SNB-19
HCT-15 = test system: HCT-15
HT-29 = test system: HT-29
SF-539 = test system: SF-539
SF-295 = test system: SF-295
RPMI-8226 = test system: RPMI-8226
MDA-MB-435 = test system: MDA-MB-435
HL-60 = test system: HL-60
DU-145 = test system: DU-145
SNB-75 = test system: SNB-75
SK-MEL-28 = test system: SK-MEL-28

With `O=C1C2CC=CCC2C(=O)N1n1c(Cc2ccccc2)n[nH]c1=O` (stereo unspecified) the GI50 (UO-31) was > 100 µM (inactive), the GI50 (KM12) was > 100 µM (inactive) and the GI50 (RXF 393) was > 100 µM (inactive). The GI50 (BT-549) was > 100 µM (inactive), the GI50 (IGROV-1) was > 100 µM (inactive) and the GI50 (NCI/ADR-RES) was > 100 µM (inactive). The GI50 (NCI-H226) was > 100 µM (inactive), the GI50 (LOX IMVI) was > 100 µM (inactive) and the GI50 (HOP-92) was > 100 µM (inactive). The GI50 (OVCAR-8) was > 100 µM (inactive), the GI50 (MDA-MB-231) was > 100 µM (inactive) and the GI50 (COLO 205) was > 100 µM (inactive). For the same compound, the GI50 (T47D) was > 100 µM (inactive), the GI50 (U-251) was > 100 µM (inactive) and the GI50 (SF-268) was > 100 µM (inactive). For the same compound, the GI50 (K562) was > 100 µM (inactive), the GI50 (Malme-3M) was > 100 µM (inactive) and the GI50 (OVCAR-5) was > 100 µM (inactive). The GI50 (A498) was > 100 µM (inactive), the GI50 (SK-OV-3) was > 100 µM (inactive) and the GI50 (HCC 2998) was > 100 µM (inactive). The GI50 (EKVX) was > 100 µM (inactive), the GI50 (SW-620) was > 100 µM (inactive) and the GI50 (CCRF-CEM) was > 100 µM (inactive). The GI50 (PC-3) was > 100 µM (inactive), the GI50 (OVCAR-3) was > 100 µM (inactive) and the GI50 (MCF7) was > 100 µM (inactive). For the same compound, the GI50 (OVCAR-4) was > 100 µM (inactive), the GI50 (HOP-62) was > 100 µM (inactive) and the GI50 (M14) was > 100 µM (inactive). The GI50 (CAKI-1) was > 100 µM (inactive), the GI50 (HCT-116) was > 100 µM (inactive) and the GI50 (786-0) was > 100 µM (inactive). For the same compound, the GI50 (NCI-H460) was > 100 µM (inactive), the GI50 (UACC-257) was > 100 µM (inactive) and the GI50 (MDA-N) was > 100 µM (inactive). For the same compound, the GI50 (Hs-578T) was > 100 µM (inactive), the GI50 (A549) was > 100 µM (inactive) and the GI50 (MOLT-4) was > 100 µM (inactive). The GI50 (TK-10) was > 100 µM (inactive), the GI50 (SK-MEL-5) was > 100 µM (inactive) and the GI50 (SN12C) was > 100 µM (inactive). The GI50 (UACC-62) was > 100 µM (inactive), the GI50 (NCI-H23) was > 100 µM (inactive) and the GI50 (SR) was > 100 µM (inactive). The GI50 (NCI-H522) was > 100 µM (inactive), the GI50 (ACHN) was > 100 µM (inactive) and the GI50 (SK-MEL-2) was > 100 µM (inactive). For the same compound, the GI50 (SNB-19) was > 100 µM (inactive), the GI50 (HCT-15) was > 100 µM and the GI50 (HT-29) was > 100 µM (inactive). The GI50 (SF-539) was > 100 µM (inactive), the GI50 (SF-295) was > 100 µM (inactive) and the GI50 (RPMI-8226) was > 100 µM (inactive). For the same compound, the GI50 (MDA-MB-435) was > 100 µM (inactive).
In the case of `CC(C)OP(=O)(OC(C)C)C(C(C)C)N(C)/C(N)=N\C1=NC(C(F)(F)F)(C(F)(F)F)N=C(C(C(F)(F)F)C(F)(F)F)O1` (stereo unspecified), the GI50 (HL-60) is reported as 1.12 µM (inactive), the GI50 (UO-31) is reported as 4.47 µM (inactive) and the GI50 (KM12) is reported as 3.4 µM (inactive). For the same compound, the GI50 (RXF 393) was 1.6 µM (inactive), the GI50 (BT-549) was 2.79 µM (inactive) and the GI50 (IGROV-1) was 2.39 µM (inactive). For the same compound, the GI50 (NCI-H226) was 2.11 µM (inactive), the GI50 (DU-145) was 6.9 µM (inactive) and the GI50 (LOX IMVI) was 1.79 µM (inactive). For the same compound, the GI50 (OVCAR-8) was 1.99 µM (inactive), the GI50 (MDA-MB-231) was 1.99 µM (inactive) and the GI50 (COLO 205) was 1.8 µM (inactive). The GI50 (T47D) was 3.01 µM (inactive), the GI50 (U-251) was 3.08 µM (inactive) and the GI50 (SF-268) was 2.62 µM (inactive). The GI50 (K562) was 1.76 µM (inactive), the GI50 (Malme-3M) was 4.51 µM (inactive) and the GI50 (SNB-75) was 2.42 µM (inactive). For the same compound, the GI50 (OVCAR-5) was 2.55 µM (inactive), the GI50 (A498) was 5.2 µM (inactive) and the GI50 (SK-OV-3) was 5.4 µM (inactive). For the same compound, the GI50 (HCC 2998) was 4.91 µM (inactive), the GI50 (EKVX) was 3.66 µM (inactive) and the GI50 (SW-620) was 2.28 µM (inactive). The GI50 (CCRF-CEM) was 0.664 µM (active), the GI50 (PC-3) was 2.56 µM (inactive) and the GI50 (OVCAR-3) was 3.27 µM (inactive). The GI50 (MCF7) was 3.79 µM (inactive), the GI50 (HOP-62) was 3.96 µM (inactive) and the GI50 (M14) was 1.41 µM (inactive). For the same compound, the GI50 (CAKI-1) was 3.12 µM (inactive), the GI50 (HCT-116) was 2.31 µM (inactive) and the GI50 (786-0) was 3.7 µM (inactive). The GI50 (NCI-H460) was 2.64 µM (inactive), the GI50 (SK-MEL-28) was 3.18 µM (inactive) and the GI50 (UACC-257) was 3.05 µM (inactive). The GI50 (MDA-N) was 2.14 µM (inactive), the GI50 (Hs-578T) was 4.99 µM (inactive) and the GI50 (A549) was 2.88 µM (inactive). The GI50 (MOLT-4) was 1.49 µM (inactive), the GI50 (TK-10) was 3.61 µM (inactive) and the GI50 (SK-MEL-5) was 1.56 µM (inactive). For the same compound, the GI50 (SN12C) was 3.15 µM (inactive), the GI50 (UACC-62) was 2.01 µM (inactive) and the GI50 (NCI-H23) was 3.61 µM (inactive). For the same compound, the GI50 (SR) was 1.9 µM (inactive), the GI50 (NCI-H522) was 1.41 µM (inactive) and the GI50 (ACHN) was 2.59 µM (inactive). The GI50 (SK-MEL-2) was 9.44 µM (inactive), the GI50 (SNB-19) was 11.9 µM (inactive) and the GI50 (HCT-15) was 3.75 µM. For the same compound, the GI50 (HT-29) was 2.46 µM (inactive), the GI50 (SF-539) was 3.75 µM (inactive) and the GI50 (SF-295) was 3.66 µM (inactive). For the same compound, the GI50 (RPMI-8226) was 1.97 µM (inactive) and the GI50 (MDA-MB-435) was 1.8 µM (inactive).
